Target: 11-beta-hydroxysteroid dehydrogenase 1 (Homo sapiens) (UniProt P28845)
Assay: ligand binding to human 11beta-HSD1 – biophysical, DSF, SYPRO orange, purified protein (AID 398)
Conditions: DSF thermal shift, protein 3 µM, buffer 10 mM HEPES, pH 7.5, NaCl 150 mM, stronger effect = higher value

Chain of 11-beta-hydroxysteroid dehydrogenase 1 (Homo sapiens) (P28845 whole entry, looked up): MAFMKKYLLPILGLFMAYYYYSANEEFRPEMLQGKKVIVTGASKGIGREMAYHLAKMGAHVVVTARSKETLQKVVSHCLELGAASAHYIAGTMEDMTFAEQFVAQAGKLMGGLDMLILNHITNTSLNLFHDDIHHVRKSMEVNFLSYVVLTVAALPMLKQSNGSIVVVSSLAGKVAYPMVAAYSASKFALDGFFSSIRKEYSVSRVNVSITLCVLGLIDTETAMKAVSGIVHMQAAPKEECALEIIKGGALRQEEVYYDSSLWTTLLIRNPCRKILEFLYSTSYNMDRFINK

Tm shift (at 10 µM, NADP 100 µM) [Celsius] | Tm shift (at 40 µM) [Celsius] | Tm shift (measured here: second DSF experiment, at 40 µM, run 2, at 40 µM) [Celsius] | SMILES
3.6 | – | – | CC(C)(COP(=O)(O)OP(=O)(O)OCC1OC(n2cnc3c(N)ncnc32)C(O)C1OP(=O)(O)O)C(O)C(=O)NCCC(=O)NCCSC(=O)Cc1ccccc1 (stereo unspecified)
– | 5.7 | 2.6 | NC(=O)c1ccc[n+](C2OC(COP(=O)(O)OP(=O)(O)OCC3OC(n4cnc5c(N)ncnc54)C(OP(=O)(O)O)C3O)C(O)C2O)c1 (stereo unspecified)
2.7 | – | – | CC(C)(COP(=O)(O)OP(=O)(O)OCC1OC(n2cnc3c(N)ncnc32)C(O)C1OP(=O)(O)O)C(O)C(=O)NCCC(=O)NCCSC(=O)CCC(=O)O (stereo unspecified)

Second part, the molecule before the results:

SMILES | Tm shift (at 10 µM, NADP 100 µM) [Celsius] | Tm shift (at 40 µM) [Celsius] | Tm shift (measured here: second DSF experiment, at 40 µM, run 2, at 40 µM) [Celsius]
COC(=O)[C@H](C)CO | 6.7 | – | –
C=CC1=C(C)/C(=C/c2[nH]c(Cc3[nH]c(/C=C4\NC(=O)C(C)=C4C=C)c(C)c3CCC(=O)O)c(CCC(=O)O)c2C)NC1=O | 3.9 | – | –
